Assay results taken from patent US9062046B2, “Substituted imidazoquinoline derivatives as kinase inhibitors” (Piramal Enterprises Limited, priority 2011, dated 2015).

What was measured:
[1] = system: A2780 (ovarian cell line); test: Cytotoxicity assay (propidium iodide assay), A2780; format: cell-based; details: Homo sapiens, A2780 cells, 48 h treatment
Method in brief: (§1)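 A2780 and PC3 cells, 3000/well, were treated with compound for 48 h after 18-24 h attachment. After washing, propidium iodide 7 μg/ml was added, followed by freeze-thaw at −70 °C and a fluorescence read. Viability was taken relative to untreated wells, with IC50 derived from the curves.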

PC3 (prostate cell line) = test: Cytotoxicity assay (propidium iodide assay), PC3; format: cell-based; details: Homo sapiens, PC-3, PC3 cells, 48 h treatment
Method in brief: as §1

COc1ncc(-c2ccc3ncc4c(c3c2)n(-c2cncc(-c3ccccc3)c2)c(=NC#N)n4C)cc1N [Example 93, N-(8-(5-amino-6-methoxypyridin-3-yl)-3-methyl-1-(5-phenylpyridin-3-yl)-1H-imidazo[4,5-c]quinolin-2(3H)-ylidene)cyanamide]
IC50 [1]: 0.5 to 2 µM | IC50 (PC3 (prostate cell line)): 0.5 to 2 µM

Cn1c(=NC#N)n(-c2ccc(C(C)(C)C#N)cc2)c2c3cc(-c4ccc5cc[nH]c5c4)ccc3ncc21 [Example 94, N-(1-(4-(2-cyanopropan-2-yl)phenyl)-8-(1H-indol-6-yl)-3-methyl-1H-imidazo[4,5-c]quinolin-2(3H)-ylidene)cyanamide]
IC50 [1]: ≤ 0.5 µM | IC50 (PC3 (prostate cell line)): ≤ 0.5 µM

COc1cc(OC)cc(-n2c(=NC#N)n(C)c3cnc4ccc(-c5cnc(N)c(C(F)(F)F)c5)cc4c32)c1 [Example 97, N-(8-(6-amino-5-(trifluoromethyl)pyridin-3-yl)-1-(3,5-dimethoxyphenyl)-3-methyl-1H-imidazo[4,5-c]quinolin-2(3H)-ylidene)cyanamide]
inhibition at 1 µM [1]: ≥ 70% | inhibition at 1 µM (PC3 (prostate cell line)): ≥ 70%

COc1ccc(-n2c(=NC#N)n(C)c3cnc4ccc(-c5cnc(N)c(C(F)(F)F)c5)cc4c32)c(OC)n1 [Example 98, N-(8-(6-amino-5-(trifluoromethyl)pyridin-3-yl)-1-(2,6-dimethoxypyridin-3-yl)-3-methyl-1H-imidazo[4,5-c]quinolin-2(3H)-ylidene)cyanamide]
inhibition at 1 µM [1]: ≥ 70% | inhibition at 1 µM (PC3 (prostate cell line)): ≥ 70%

COc1cc(OC)cc(-n2c(=NC#N)n(C)c3cnc4ccc(-c5cnc(OC)c(N)c5)cc4c32)c1 [Example 99, N-(8-(5-amino-6-methoxypyridin-3-yl)-1-(3,5-dimethoxyphenyl)-3-methyl-1H-imidazo[4,5-c]quinolin-2(3H)-ylidene)cyanamide]
IC50 [1]: ≤ 0.5 µM | IC50 (PC3 (prostate cell line)): 0.5 to 2 µM

COc1ccc(-n2c(=NC#N)n(C)c3cnc4ccc(-c5cnc6ccccc6c5)cc4c32)c(OC)c1 [Example 100, N-(1-(2,4-dimethoxyphenyl)-3-methyl-8-(quinolin-3-yl)-1H-imidazo[4,5-c]quinolin-2(3H)-ylidene)cyanamide]
IC50 [1]: ≤ 0.5 µM | IC50 (PC3 (prostate cell line)): ≤ 0.5 µM

COc1ccc(-n2c(=NC#N)n(C)c3cnc4ccc(-c5cccnc5)cc4c32)c(OC)c1 [Example 101, N-(1-(2,4-dimethoxyphenyl)-3-methyl-8-(pyridin-3-yl)-1H-imidazo[4,5-c]quinolin-2(3H)-ylidene)cyanamide]
IC50 [1]: ≤ 0.5 µM | IC50 (PC3 (prostate cell line)): ≤ 0.5 µM

COc1cc(OC)cc(-n2c(=NC#N)n(C)c3cnc4ccc(-c5cccnc5)cc4c32)c1 [Example 102, N-(1-(3,5-dimethoxyphenyl)-3-methyl-8-(pyridin-3-yl)-1H-imidazo[4,5-c]quinolin-2(3H)-ylidene)cyanamide]
inhibition at 1 µM [1]: ≥ 70% | inhibition at 1 µM (PC3 (prostate cell line)): < 30%

COc1ccc(-n2c(=NC#N)n(C)c3cnc4ccc(-c5ccc6ncccc6c5)cc4c32)c(OC)c1 [Example 103, N-(1-(2,4-dimethoxyphenyl)-3-methyl-8-(quinolin-6-yl)-1H-imidazo[4,5-c]quinolin-2(3H)-ylidene)cyanamide]
IC50 [1]: ≤ 0.5 µM | IC50 (PC3 (prostate cell line)): ≤ 0.5 µM

Cn1c(=NC#N)n(-c2ccc(OC(F)(F)F)cc2)c2c3cc(-c4cnc(N)c(C(F)(F)F)c4)ccc3ncc21 [Example 105, N-(8-(6-amino-5-(trifluoromethyl)pyridin-3-yl)-3-methyl-1-(4-(trifluoromethoxy)phenyl)-1H-imidazo[4,5-c]quinolin-2(3H)-ylidene)cyanamide]
IC50 [1]: ≤ 0.5 µM | IC50 (PC3 (prostate cell line)): ≤ 0.5 µM

COc1ncc(-c2ccc3ncc4c(c3c2)n(-c2ccc(OC(F)(F)F)cc2)c(=NC#N)n4C)cc1N [Example 106, N-(8-(5-amino-6-methoxypyridin-3-yl)-3-methyl-1-(4-(trifluoromethoxy)phenyl)-1H-imidazo[4,5-c]quinolin-2(3H)-ylidene)cyanamide]
IC50 [1]: ≤ 0.5 µM | IC50 (PC3 (prostate cell line)): ≤ 0.5 µM
